According to PubChem BioAssay (NCI):
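Each compound was tested at five concentrations against cells in 96-well plates for 48 hours. TGI denotes the concentration required for complete inhibition of growth.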

Tests used:
Assay in all cases: DTP human tumour cell line panel, 48 h
[1] = test system: SF-539 CNS
[2] = test system: HCT-116 colon
[3] = test system: COLO 205 colon
[4] = test system: HL-60(TB) leukemia
[5] = test system: UO-31 renal
[6] = test system: SW-620 colon
[7] = test system: DU-145 prostate
[8] = test system: MDA-MB-231 breast
[9] = test system: SNB-19 CNS
[10] = test system: HOP-92 NSCLC
[11] = test system: ACHN renal
[12] = test system: MDA-N
[13] = test system: T-47D breast
[14] = test system: UACC-257 melanoma
[15] = test system: RXF 393 renal
[16] = test system: M14 melanoma
[17] = test system: A498 renal
[18] = test system: OVCAR-3 ovarian
[19] = test system: HT29 colon
[20] = test system: NCI-H226 lung
[21] = test system: HS 578T breast
[22] = test system: MOLT-4 leukemia
[23] = test system: K-562 leukemia
[24] = test system: MDA-MB-435
[25] = test system: 786-0 renal
[26] = test system: TK-10 renal
[27] = test system: CAKI-1 renal
[28] = test system: IGROV1 ovarian
[29] = test system: HCT-15 colon
[30] = test system: SK-OV-3 ovarian
[31] = test system: SK-MEL-5 melanoma
[32] = test system: SNB-75 CNS
[33] = test system: PC-3 prostate
[34] = test system: SK-MEL-2 melanoma
[35] = test system: SF-268 CNS
[36] = test system: MALME-3M melanoma
[37] = test system: OVCAR-8 ovarian
[38] = test system: A549 NSCLC
[39] = test system: EKVX NSCLC
[40] = test system: SN12C renal
[41] = test system: SF-295 CNS
[42] = test system: U251 CNS
[43] = test system: KM12 colon
[44] = test system: CCRF-CEM leukemia
[45] = test system: NCI/ADR-RES ovarian
[46] = test system: UACC-62 melanoma
[47] = test system: NCI-H522 lung
[48] = test system: BT-549 breast
[49] = test system: NCI-H460 lung
[50] = test system: HOP-62 NSCLC
[51] = test system: MCF7 breast
[52] = test system: SK-MEL-28 melanoma
[53] = test system: LOX IMVI melanoma
[54] = test system: OVCAR-5 ovarian
[55] = test system: SR leukemia
[56] = test system: OVCAR-4 ovarian
[57] = test system: RPMI-8226 leukemia
[58] = test system: NCI-H23 lung

COc1ccc(/C=C/C(=O)c2nc3ccccc3[nH]2)cc1
TGI [1]: 26.7 µM | TGI [2]: 18.6 µM | TGI [3]: 26 µM | TGI [4]: > 29.7 µM | TGI [5]: 34.6 µM | TGI [6]: 49.1 µM | TGI [7]: 45.6 µM | TGI [8]: 48.9 µM | TGI [9]: 77.3 µM | TGI [10]: 35.6 µM | TGI [11]: 34.5 µM | TGI [12]: 32.9 µM | TGI [13]: 53.7 µM | TGI [14]: 52 µM | TGI [15]: 35.3 µM | TGI [16]: > 59.1 µM | TGI [17]: > 82.7 µM | TGI [18]: 48.5 µM | TGI [19]: 22.9 µM | TGI [20]: > 54.7 µM | TGI [21]: > 77.2 µM | TGI [22]: > 67.1 µM | TGI [23]: > 100 µM | TGI [24]: > 100 µM | TGI [25]: 32.2 µM | TGI [26]: 47.2 µM | TGI [27]: > 100 µM | TGI [28]: 25.9 µM | TGI [29]: > 40.5 µM | TGI [30]: 86.1 µM | TGI [31]: 31.8 µM | TGI [32]: 57.4 µM | TGI [33]: 87.6 µM | TGI [34]: > 100 µM | TGI [35]: > 64.5 µM | TGI [36]: 61.7 µM | TGI [37]: 51.1 µM | TGI [38]: > 81.8 µM | TGI [39]: 46 µM | TGI [40]: 73.9 µM | TGI [41]: > 84.8 µM | TGI [42]: 37.3 µM | TGI [43]: 19.8 µM | TGI [44]: > 100 µM | TGI [45]: 53.5 µM | TGI [46]: 38.9 µM | TGI [47]: 32.5 µM | TGI [48]: 55.2 µM | TGI [49]: 47.5 µM | TGI [50]: > 88.1 µM | TGI [51]: > 81 µM | TGI [52]: 65.6 µM | TGI [53]: 28.2 µM | TGI [54]: > 71.7 µM | TGI [55]: > 27.1 µM | TGI [56]: 60.1 µM | TGI [57]: > 29.8 µM

O=C(N1CCOCC1)C1(c2ccccc2)CCNCC1
TGI [1]: > 100 µM | TGI [2]: > 100 µM | TGI [3]: > 100 µM | TGI [5]: > 100 µM | TGI [6]: > 100 µM | TGI [7]: > 100 µM | TGI [8]: > 100 µM | TGI [9]: > 100 µM | TGI [10]: > 100 µM | TGI [11]: > 100 µM | TGI [12]: > 100 µM | TGI [13]: > 100 µM | TGI [14]: > 100 µM | TGI [15]: > 100 µM | TGI [16]: > 100 µM | TGI [17]: > 100 µM | TGI [18]: > 100 µM | TGI [19]: > 100 µM | TGI [20]: > 100 µM | TGI [21]: > 100 µM | TGI [22]: > 100 µM | TGI [23]: > 100 µM | TGI [24]: > 100 µM | TGI [25]: > 100 µM | TGI [26]: > 100 µM | TGI [27]: > 100 µM | TGI [28]: > 100 µM | TGI [29]: > 100 µM | TGI [30]: > 100 µM | TGI [31]: > 100 µM | TGI [32]: > 100 µM | TGI [33]: > 100 µM | TGI [34]: > 100 µM | TGI [35]: > 100 µM | TGI [36]: > 100 µM | TGI [37]: > 100 µM | TGI [38]: > 100 µM | TGI [39]: > 100 µM | TGI [40]: > 100 µM | TGI [41]: > 100 µM | TGI [42]: > 100 µM | TGI [43]: > 100 µM | TGI [44]: 78.8 µM | TGI [45]: > 100 µM | TGI [46]: > 100 µM | TGI [47]: > 100 µM | TGI [48]: > 100 µM | TGI [58]: > 100 µM | TGI [49]: > 100 µM | TGI [50]: > 100 µM | TGI [51]: > 100 µM | TGI [52]: > 100 µM | TGI [53]: > 100 µM | TGI [54]: > 100 µM | TGI [55]: > 100 µM | TGI [56]: > 100 µM | TGI [57]: > 100 µM
